Holding throughout (type): cell-based
The subject of assay [1] is RPEMYC^H2B-GFP cells. Nature of the assay: Phenotypic screening assay (mitotic arrest, polyploidy). The conditions noted are these: 1 nM to 30 μM; for IC50: read-out: Proliferative arrest (>50%). A digest of the protocol:
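RPE cells expressing MYC and H2B-EGFP treated with compound at 1 nM–30 μM; mitotic index scored at 24 h and polyploidy (DNA content) at 48 h by automated imaging, with reads at 24, 48 or 72 h. Hits show transient mitotic arrest followed by polyploid accumulation.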

Assay [2] deals with A549. The assay can be described thus: MECP in cancer cell line. The conditions noted are these: Homo sapiens. How it is done:
(§1) Six lung cancer cell lines (NCI-H23, NCI-H460, NCI-H596, NCI-H2170, Calu-6 and A549), two colon cancer cell lines (HCT116 and SW460), one breast cancer cell line MDA-MB-231, one gastric cancer cell line NCI-N87, one prostate cancer cell line DU145, one cervical cancer cell line Hela, and one glioblastoma cell line T98G were obtained from ATCC. The T2 HCC cell line was derived from a mouse liver cancer model initiated by a transgene of MYC. All cell lines were cultured in DMEM (Gibco, Cleveland, TN, USA) supplemented with 5% fetal bovine serum (Gibco), penicillin (100 U/mL)—streptomycin (100 μg/mL) (Gibco, Cat. No. 15140-122), 2 mM L-glutamine (Gibco, 200 mM solution, Cat. No. 25030081), and 1 mM sodium pyruvate (Gibco, 100 mM solution, Cat. No. 11360070) at 37° C. in a humidified incubator that was maintained at 5% CO2.
(§2) We have previously developed a mechanism-informed phenotypic screening assay to identify novel antimitotic agents. Equipped with a prior understanding of the versatile functions of the chromosomal passenger protein (CPP) complex in orchestrating karyokinesis and cytokinesis, the screening assay is to score for phenotypes typically seen when the CPP complex is disabled. Specifically, the parameters for a positive hit are a temporary elevation of mitotic index (MI) at 24 hours of drug treatment and an accumulation of polyploid cells at 48 hours of drug treatment, indicative of mitotic arrest and cytokinetic failure respectively. These parameters exclude compounds that elicit only a prolonged arrest of cells in mitosis, a phenotype typically provoked by spindle toxins. The screening procedure is briefly summarized here. RPEMYC^H2B-GFP cells engineered to express a Histone 2B-EGFP fusion protein were passaged as batches of 96-well plates, 18-24 hours before exposure to the chemical compounds of the present disclosure at concentrations from 1 nM to 30 μM. At 24, 48 or 72 hours after initiation of treatment, cells were analyzed for either an arrest in mitosis or a change in DNA content by GE IN-Cell Analyzer 2000. As set forth in Table 2 below, a value of greater than or equal to 1 nM and less than or equal to 1.0 μM is marked “A”; a value greater than 1.00 μM and less than or equal to 10.0 μM is marked “B”; a value greater than 10.0 μM and less than or equal to 30.0 μM is marked “C”; and a value greater than 30.0 μM is marked “D.”

Assay [3] deals with HCT116. The assay can be described thus: MECP in cancer cell line. The settings on record: Homo sapiens, HCT-116. The method, then: as §1, §2
Assay [4] relates to Hela. Nature of the assay: MECP in cancer cell line. The settings on record: Homo sapiens. How it is done: as §1, §2
Assay [5] concerns MDA-MB-231. Nature of the assay: MECP in cancer cell line. The conditions noted are these: Homo sapiens. How it is done: as §1, §2
Assay [6] concerns SW480. Nature of the assay: MECP in cancer cell line. The settings on record: Homo sapiens. The method, then:
as §1, §2

Assay [7] concerns T2 HCC. Nature of the assay: MECP in cancer cell line. The conditions noted are these: Mus musculus. How it is done:
as §1, §2

In assay [8] the test system is NCI-H23. The assay can be described thus: MECP in cancer cell line. The conditions noted are these: Homo sapiens. How it is done:
as §1, with “CO2. […]” for “CO2.”

Assay [9] has as its system NCI-N87. Nature of the assay: MECP in cancer cell line. The settings on record: Homo sapiens. The method, then:
as §1, with “CO2. […]” for “CO2.”

Assay [10] deals with A549. The assay can be described thus: MTT assay of cellular proliferation. The conditions noted are these: Homo sapiens, 50% inhibition of cellular proliferation. The method, then:
as §1
(§3) The MTT assay measures cellular metabolic activity as a proxy for cell viability and involves the conversion of the water-soluble yellow dye MTT [3-(4,5-dimethylthiazol-2-yl)-2,5-diphenyltetrazolium bromide] into an insoluble purple formazan by the action of mitochondrial reductase. Formazan is then solubilized and its concentration is determined by measuring the optical density (OD) value at a wavelength of 570 nm. The value is in proportional to the number of live cells with excellent linearity up to ˜10^6 cells per well. The MTT assay was used to determine the EC50 value, the concentration of a compound that leads to 50% inhibition of cellular proliferation. Briefly, cells were split when growing to the mid-Log phase. Cells in 100 μL of culture medium were seeded into each well of 96-well microplates and cultivated for 15-24 hours to reach a confluence of 20-30% and were then exposed to drugs at concentrations ranging from 1 nM to 30 μM. At the endpoint, 20 μL of a MTT stock solution in DMSO (5 mg/mL) was added to each well that contains 100 μL of DMEM. The microplates were left in the cell culture incubator for 3-4 h before subjected to solubilization and determination of formazan at A570 in a microplate reader (BioTek ELX808iu). […] Therefore, these compounds might hold a broad utility in the treatment of a large variety of human malignancies.

Assay [11] relates to HCT116. The assay can be described thus: MTT assay of cellular proliferation. The conditions noted are these: Homo sapiens, HCT-116, 50% inhibition of cellular proliferation. How it is done: as §1, §3
For assay [12], the system named is Hela. Nature of the assay: MTT assay of cellular proliferation. The settings on record: Homo sapiens, 50% inhibition of cellular proliferation. The method, then:
as §1, §3

Assay [13] has as its system MDA-MB-231. Nature of the assay: MTT assay of cellular proliferation. The settings on record: Homo sapiens; MDA-MB-231, MTT, 50% inhibition of cellular proliferation. The method, then:
as §1, §3

For assay [14], the system named is NCI-H23. The assay can be described thus: MTT assay of cellular proliferation. The settings on record: Homo sapiens, 50% inhibition of cellular proliferation. How it is done: as §1, §3
The test system of assay [15] is NCI-N87. The assay can be described thus: MTT assay of cellular proliferation. The conditions noted are these: Homo sapiens, 50% inhibition of cellular proliferation. How it is done:
as §1, §3

The subject of assay [16] is SW480. The assay can be described thus: MTT assay of cellular proliferation. The conditions noted are these: Homo sapiens, 50% inhibition of cellular proliferation. How it is done: as §1, §3
Assay [17] has as its system T2 HCC. The assay can be described thus: MTT assay of cellular proliferation. The settings on record: Mus musculus, 50% inhibition of cellular proliferation. The method, then:
as §1, §3

Setting [18] is: read-out: Min. Effective conc. for Polyploidy (≥5%).

Data on 3 molecules can be found in patent US20240239806A1, “COMPOUNDS, COMPOSITIONS AND METHODS OF TREATING DISORDERS” (Chengdu Anticancer Bioscience, Ltd., priority 2021, published 2024).

Where two headings read alike, the source gives them in different places.

Take `COc1cc(Oc2ccnc3ccccc23)cc(-n2cccn2)c1` [Compound 12, 4-(3-methoxy-5-(1H-pyrazol-1-yl)phenoxy)quinoline]: the minimal effective concentration in assay [1] (setting [18]), in assay [1] (read-out: Mitotic Arrest (≥5%)), in [2], in assay [3], in assay [4] and in [5] was 0.001 to 1 µM throughout. Besides, the minimal effective concentration in assay [6], in assay [7], in assay [8] and in [9] was 0.001 to 1 µM each time. Moreover, the IC50 in assay [1] lay within 1 to 1000 nM. The concentration giving a half-maximal response (EC50) in assay [10], in assay [11], in [12], in [13], in assay [14] and in assay [15] was 1 to 1000 nM throughout. For the same molecule, the EC50 in assay [16] and in [17] was 1 to 1000 nM in each case.

As to `COc1cc(NC(C)=O)cc(Oc2ccnc3ccccc23)c1` [Compound 14, N-(3-methoxy-5-(quinolin-4-yloxy)phenyl)acetamide], the minimal effective concentration in assay [1] (setting [18]), in [1] (read-out: Mitotic Arrest (≥5%)), in [2], in assay [3], in assay [4] and in assay [5] was 0.001 to 1 µM throughout. Further, the minimal effective concentration in assay [6], in [7], in [8] and in assay [9] was 0.001 to 1 µM throughout. For the same molecule, the IC50 in assay [1] was in the range of 1 to 1000 nM. Moreover, the half-maximal effective concentration (EC50) in [10], in assay [11], in assay [12], in assay [13], in [14] and in [15] was 1 to 1000 nM in each case. The EC50 in [16] and in assay [17] was 1 to 1000 nM throughout.

Turning to `COc1cc(Oc2ccnc3ccc(OC)cc23)cc(-n2cccn2)c1` [Compound 17, 6-methoxy-4(3-methoxy-5-(1H-pyrazol-1-yl)phenoxy)quinoline], the “Min. Effective conc. for Polyploidy (≥5%)” value in assay [1] was “B (a value greater than 1.00 μM and less than or equal to 10.0 μM)”. In addition, in assay [1], the “Mitotic Arrest (≥5%)” value was “B (a value greater than 1.00 μM and less than or equal to 10.0 μM)”. For the same molecule, the “Proliferative arrest (>50%)” value in assay [1] was “B (a value greater than 1.00 μM and less than or equal to 10.0 μM)”. Also, in [1] (listed as 16), the “Along with Cell Death” value is “B (a value greater than 1.00 μM and less than or equal to 10.0 μM)”. Also, the minimal effective concentration in assay [1] (setting [18]), in assay [1] (read-out: Mitotic Arrest (≥5%)), in assay [2], in assay [3], in [4] and in assay [5] was 0.001 to 1 µM each time. The minimal effective concentration in assay [6], in assay [7], in assay [8] and in [9] was 0.001 to 1 µM in each case. In assay [1], the IC50 fell in the range of 1 to 1000 nM. Also, the 50% effective concentration (EC50) in assay [10], in assay [11], in assay [12], in assay [13], in [14] and in assay [15] was 1 to 1000 nM each time. The EC50 in assay [16] and in assay [17] was 1 to 1000 nM throughout.
